Laboratory results: ChEMBL document CHEMBL5335852, “The Promiscuous Flavin-Dependent Monooxygenase PboD from Aspergillus ustus Increases the Structural Diversity of Hydroxylated Pyrroloindoline Diketopiperazines” (J Nat Prod, 2024)
Active and inactive are the calls of the source.

Assays:
Assay type in all cases: functional, organism-based
[1] = tested on: Pseudomonas aeruginosa; test: Antibacterial activity against Pseudomonas aeruginosa ATCC 27853 assessed as inhibition of bacterial growth incubated for 20 hrs by agar disk-diffusion method
[2] = tested on: Klebsiella pneumoniae; test: Antibacterial activity against Klebsiella pneumoniae DSM 26371 assessed as inhibition of bacterial growth incubated for 20 hrs by agar disk-diffusion method
[3] = tested on: Niallia circulans; test: Antibacterial activity against Bacillus circulans NRRL B-380 assessed as inhibition of bacterial growth incubated for 20 hrs by agar disk-diffusion method
[4] = tested on: Staphylococcus delphini; test: Antibacterial activity against Staphylococcus delphini DSM 20771 assessed as inhibition of bacterial growth incubated for 20 hrs by agar disk-diffusion method
[5] = tested on: Staphylococcus aureus; test: Antibacterial activity against Staphylococcus aureus ATCC29213 assessed as inhibition of bacterial growth incubated for 20 hrs by agar disk-diffusion method
[6] = tested on: Enterococcus faecalis; test: Antibacterial activity against Enterococcus faecalis DSM 2570 assessed as inhibition of bacterial growth incubated for 20 hrs by agar disk-diffusion method
[7] = tested on: Escherichia coli; test: Antibacterial activity against Escherichia coli ATCC 35218 assessed as inhibition of bacterial growth incubated for 20 hrs by agar disk-diffusion method
[8] = tested on: Bacillus subtilis; test: Antibacterial activity against Bacillus subtilis […] assessed as inhibition of bacterial growth incubated for 20 hrs by agar disk-diffusion method

Measured: Activity

O=C1N[C@@H](Cc2c[nH]c3ccccc23)C(=O)N2[C@H]1C[C@@]1(O)c3ccccc3N[C@@H]21
inactive: [1] | [2] | [3] | [4] | [5] | [6] | [7] | [8]

O=C1N[C@@H](Cc2ccccc2)C(=O)N2[C@H]1C[C@@]1(O)c3ccccc3N[C@@H]21
inactive: [1] | [2] | [3] | [4] | [5] | [6] | [7] | [8]

CSCC[C@@H]1NC(=O)[C@@H]2C[C@@]3(O)c4ccccc4N[C@H]3N2C1=O
inactive: [1] | [2] | [3] | [4] | [5] | [6] | [7] | [8]

O=C1N[C@@H](Cc2ccc(O)cc2)C(=O)N2[C@H]1C[C@@]1(O)c3ccccc3N[C@@H]21
inactive: [1] | [2] | [3] | [4] | [5] | [6] | [7] | [8]

CC(C)C[C@@H]1NC(=O)[C@@H]2C[C@@]3(O)c4ccccc4N[C@H]3N2C1=O
inactive: [1] | [2] | [3] | [4] | [5] | [6] | [7] | [8]

C[C@@H]1NC(=O)[C@@H]2C[C@@]3(O)c4ccccc4N[C@H]3N2C1=O
inactive: [1] | [2] | [3] | [4] | [5] | [6] | [7] | [8]
